Experimental data published in ChEMBL document CHEMBL5370621, “Design, Synthesis, and Biological Evaluation of Novel Thioureidobenzamide (TBA) Derivatives as HBV Capsid Assembly Modulators” (J Med Chem, 2023).

Columns and labels:
Hepatitis B virus = assay: Antiviral activity against Hepatitis B virus infected in human HePAD38 cells assessed as inhibition of viral DNA replication by qPCR analysis; type: functional, organism-based
[1] = Cytotoxicity against human HePAD38 cells assessed as reduction in cell viability incubated for 72 hrs by CCK8 assay; type: toxicity, cell-based
[2] = Selectivity index, ratio of CC50 for cytotoxicity against human HePAD38 cells to EC50 for antiviral activity against Hepatitis B virus infected in human HePAD38 cells; type: toxicity, cell-based; conditions: read-out: Ratio CC50/EC50

SMILES	EC50 (Hepatitis B virus)	CC50 at 72 h [1]	selectivity ratio [2]
Cc1ccc(C(=O)Nc2cc(C(=O)Nc3ccc(F)c(C)c3)c(Br)cc2F)cc1	0.52 µM	20.9 µM	40.1
Cc1cc(NC(=O)c2cc(NC(=S)NCc3ccc(B(O)O)cc3)c(F)cc2Br)ccc1F	0.029 µM	3.08 µM	106
Cc1cc(NC(=O)c2cc(NC(=S)NCc3cc(F)cc(F)c3)c(F)cc2Br)ccc1F	0.22 µM	3.61 µM	16.4
Cc1cc(NC(=O)c2cc(NC(=S)NCc3ccc(C(F)(F)F)cc3)c(F)cc2Br)ccc1F	0.2 µM	3.22 µM	16.1
CCCc1ccc(C(=O)Nc2cc(C(=O)Nc3ccc(F)c(C)c3)c(Br)cc2F)cc1	0.58 µM	32 µM	55.1
Cc1cc(NC(=O)c2cc(NC(=O)Nc3ccc(C(F)(F)F)cc3)c(F)cc2Br)ccc1F	5.21 µM	3.5 µM	0.67
Cc1cc(NC(=O)c2cc(NC(=O)NCc3cc(F)c(F)c(F)c3)c(F)cc2Br)ccc1F	0.72 µM	3.69 µM	5.13
Cc1cc(NC(=O)c2cc(NC(=O)NCc3ccc(F)cc3)c(F)cc2Br)ccc1F	0.34 µM	18.5 µM	54.4
O=C(Nc1ccc(F)c(C(F)(F)F)c1)c1cc(S(=O)(=O)NC2CCCC2)c(F)cc1Br	> 20 µM	> 100 µM	–
O=C(Nc1ccc(F)cc1)c1cc(S(=O)(=O)NC2CCCC2)c(F)cc1Br	0.78 µM	58 µM	74.4
Cc1cc(NC(=O)c2cc(NC(=O)NCc3ccc(O)cc3)c(F)cc2Br)ccc1F	0.12 µM	1.99 µM	16.6
Cc1cc(NC(=O)c2cc(NC(=S)NC(C)C(F)(F)F)c(F)cc2Br)ccc1F (stereo not drawn)	0.024 µM	17.1 µM	710
CCN(CC)S(=O)(=O)c1cc(C(=O)Nc2cc(F)c(F)c(F)c2)c(Br)cc1F	0.46 µM	4.47 µM	9.72
COCCC(=O)Nc1cc(C(=O)Nc2ccc(F)c(C)c2)c(Br)cc1F	3.55 µM	97.4 µM	27.4
Cc1cc(CNC(=O)Nc2cc(C(=O)Nc3ccc(F)c(C)c3)c(Br)cc2F)ccc1F	0.32 µM	3.28 µM	10.2
Cc1cc(NC(=O)c2cc(NC(=O)NC(C)C)c(F)cc2Br)ccc1F	1.15 µM	19.1 µM	16.6
C/C=C/C(=O)Nc1cc(C(=O)Nc2ccc(F)c(C)c2)c(Br)cc1F	1.98 µM	28.5 µM	14.4
Cc1cc(NC(=O)c2cc(NC(=O)C(=O)NC(C)C)c(F)cc2Br)ccc1F	0.2 µM	> 100 µM	> 496
C=C1[C@H](CO)[C@@H](O)C[C@@H]1n1cnc2c(=O)[nH]c(N)nc21 [ENTECAVIR ANHYDROUS]	0.021 µM	79.3 µM	3780
Cc1cc(NC(=O)c2cc(NC(=O)C3CCCC3)c(F)cc2Br)ccc1F	1.07 µM	> 100 µM	> 93.5
Cc1cc(NC(=O)c2cc(NC(=O)NCc3cc(F)cc(F)c3)c(F)cc2Br)ccc1F	0.18 µM	3.72 µM	20.7
Cc1cc(NC(=O)c2cc(NC(=O)C(=O)NC3CC3)c(F)cc2Br)ccc1F	0.67 µM	17 µM	25.3
Nc1ccn([C@@H]2CS[C@H](CO)O2)c(=O)n1 [LAMIVUDINE]	3.98 µM	> 100 µM	> 25.1
